Measured values reported in patent publication US20220280516A1, “PEGYLATED HEPARIN NANOMICELLE LOADED WITH CARBOXYLIC ACID ANTI-TUMOR DRUG AND PREPARATION METHOD THEREOF” (priority 2020, published 2022).

Tested on: 5T33 multiple myeloma cells
Test: In vivo experiment of multiple myeloma
Conditions: 5T33 myeloma mice, subcutaneous
Description: Thirty 6-week-old mice are divided into three groups, which are administrated with free bendamustine (Group I), PEG-Py-HP-bendamustine (Group II) and PEG-Mal-HP-bendamustine (Group III) respectively. Male and female animals in each group are halved, and there is no statistically significant difference in body weight among animals in each group. The dosage of free bendamustine group is 0.1 ml/kg body weight/day, and that of PEG-Py-HP-bendamustine group and PEG-Mal-HP-bendamustine group is 20 mg/kg (body weight/day).
One week after injection of 1,000,000 5T33 multiple myeloma cells into the tail veins of mice, drugs are administered subcutaneously according to the above scheme, for three times a week. During the administration period, the animals are weighed every day, and the dosage on that day is determined according to the weight, and the animals are continuously administered until the death of the mice. The venous blood of mice is collected and stored every week, and the time of death of mice is recorded.

With Cn1c(CCCC(=O)O)nc2cc(N(CCCl)CCCl)ccc21 [free bendamustine, Bendamustine] the “Average survival days of mice after drug injection” value (three times a week until death) was 36 days, the “Average tumor load in serum of mice after drug injection” value (from here on “Average tumor load in serum of mice”) (1 day) was 132.2 µg/mL and the “Average tumor load in serum of mice” value (8 days) was 201.5 µg/mL. For the same compound, the “Average tumor load in serum of mice” value (15 days) was 321.2 µg/mL, the “Average tumor load in serum of mice” value (22 days) was 608.4 µg/mL and the “Average tumor load in serum of mice” value (29 days) was 873.3 µg/mL. The “Average tumor load in serum of mice” value (36 days) was 946.8 µg/mL.
